Source: patent US20190059368A1, “3,5-DIMETHOXYSTILBENE ANALOGS AND USES THEREOF” (The United States of America, as represented by the …, priority 2017, published 2019)
Values after ≈ are worked out from the molar mass of the structure shown. Where two headings read alike, the source gives them in different places. Marks after values point to notes of the source that are not given here.

Key:
[1] = system: Meloidogyne incognita second-stage juveniles (J2); assay: M. incognita assay with previously hatched J2 immersed in test solutions; settings: in vivo
Protocol: (§1) Two types of assays were used to investigate activity against M. incognita: i) eggs were immersed in solutions of the test compounds, and ii) second-stage juveniles (J2) previously hatched from eggs were immersed in the test solutions. These assays were conducted with procedures similar to those in Meyer, et al. (J. Nematol. 2006, 38, 333). M. incognita race 1 (originally isolated in 2013 from a field in Maryland) was grown in the greenhouse on pepper (Capsicum annuum L.) cultivar PA-136. Egg masses were hand-picked from plant roots, rinsed three times with sterile distilled H2O, and agitated in 0.6% NaClO for 3.5 minutes to separate and surface-sterilize eggs. The eggs were rinsed in sterile distilled H2O and stored overnight at 4° C. before use in egg immersion assays. To collect J2 for direct immersion into the test compounds, sterilized eggs were placed into a hatching chamber made with a Spectra/Mesh Nylon Filter (openings 25 μm in diameter; Spectrum Laboratories Inc., Rancho Dominguez, Calif., USA) in an autoclaved dish. J2 that passed through the filter within 3 days were used immediately for assays.
The assays were conducted in 96-well polystyrene plates. For the assays with immersed eggs, each well received approximately 50 eggs in 35 μl of sterile deionized water (SDW). For assays with previously hatched J2, a suspension of approximately 50 J2 in 35 μl of SDW was placed into each well. Each well then received 165 μl of treatment or control. The solvent used to dissolve the test chemicals was a 1:1:1 mixture referred to herein as CTD: equal parts Cremophor® EL Castor Oil (BASF Corporation, Vandalia, Ill., USA), Tween 80® (Sigma-Aldrich, St. Louis, Mo., USA), and DMSO (Sigma-Aldrich). A high and low rate of each compound was tested. After addition to the nematode suspensions in the wells, the low and high rates were 83.3 and 166.7 μg/ml of each test compound, respectively, dissolved in 0.5% and 1.0% of each of the three combined solvents. Controls were CTD equivalent to the low and high rates, and SDW. Because of the large number of treatments, the test compounds were divided into two groups for the egg immersion assays. The compounds tested in the egg immersion Assay 1 were 3, 6a, 6e, 6f, 6g, 6n, 7a, 7c, 7e, 7f, 7n, 11, 12, 16, and 17. The compounds tested in the egg immersion Assay 2 were 6b, 6h, 6i, 6j, 6k, 6l , 7b, 7g, 7h, 7i, 7j, 7k, 7l, and 7m (data not shown). Test compounds used for assays with previously hatched J2 were selected based on results with the egg assays. […]
Each polystyrene culture plate was covered with a plastic adhesive sheet (Excel Scientific, Inc., Victorville, Calif., USA) and incubated at 25° C. […] In egg immersion assays, total numbers of hatched J2, and numbers of mobile and immobile J2, were counted after 2 and 7 days incubation in the test compounds. In the first assay with previously hatched J2, the numbers of mobile and immobile J2 were counted after 1 and 2 days incubation, the treatments removed and replaced with a SDW rinse, and 2 days later the mobile vs. immobile J2 counted again. […]
Data from the M. incognita assays were analyzed with the statistical package JMP 11.2.0 (SAS Institute, Cary, N.C., USA). Differences among numbers of hatched J2 in each treatment, and among percentage of mobile J2 per treatment (number mobile J2/total J2×100), were determined by the ANOVA, and means were compared using Tukey Kramer's adjustment for multiple comparisons (P<0.05). […]

[2] = system: Meloidogyne incognita eggs; assay: M. incognita egg immersion assay (hatch and mobility of hatched J2); assay type: in vivo; settings: for Percent mobile J2, assay 2: 2 days
Protocol: as §1
The assays were conducted in 96-well polystyrene plates. For the assays with immersed eggs, each well received approximately 50 eggs in 35 μl of sterile deionized water (SDW). For assays with previously hatched J2, a suspension of approximately 50 J2 in 35 μl of SDW was placed into each well. Each well then received 165 μl of treatment or control. The solvent used to dissolve the test chemicals was a 1:1:1 mixture referred to herein as CTD: equal parts Cremophor® EL Castor Oil (BASF Corporation, Vandalia, Ill., USA), Tween 80® (Sigma-Aldrich, St. Louis, Mo., USA), and DMSO (Sigma-Aldrich). A high and low rate of each compound was tested. After addition to the nematode suspensions in the wells, the low and high rates were 83.3 and 166.7 μg/ml of each test compound, respectively, dissolved in 0.5% and 1.0% of each of the three combined solvents. Controls were CTD equivalent to the low and high rates, and SDW. Because of the large number of treatments, the test compounds were divided into two groups for the egg immersion assays. The compounds tested in the egg immersion Assay 1 were 3, 6a, 6e, 6f, 6g, 6n, 7a, 7c, 7e, 7f, 7n, 11, 12, 16, and 17. The compounds tested in the egg immersion Assay 2 were 6b, 6h, 6i, 6j, 6k, 6l , 7b, 7g, 7h, 7i, 7j, 7k, 7l, and 7m (data not shown). Test compounds used for assays with previously hatched J2 were selected based on results with the egg assays. The five compounds tested were 6b, 6f, 6g, 6i, and 7k, high and low rates.
Each polystyrene culture plate was covered with a plastic adhesive sheet (Excel Scientific, Inc., Victorville, Calif., USA) and incubated at 25° C. Ten wells (water controls) or five wells (all other treatments) were used per treatment in each assay. In egg immersion assays, total numbers of hatched J2, and numbers of mobile and immobile J2, were counted after 2 and 7 days incubation in the test compounds. In the first assay with previously hatched J2, the numbers of mobile and immobile J2 were counted after 1 and 2 days incubation, the treatments removed and replaced with a SDW rinse, and 2 days later the mobile vs. immobile J2 counted again. In assays with 6g and 7k, high rates and counts were made on Days 1, 2, 4, and 6, without a SDW rinse.
Data from the M. incognita assays were analyzed with the statistical package JMP 11.2.0 (SAS Institute, Cary, N.C., USA). Differences among numbers of hatched J2 in each treatment, and among percentage of mobile J2 per treatment (number mobile J2/total J2×100), were determined by the ANOVA, and means were compared using Tukey Kramer's adjustment for multiple comparisons (P<0.05). For percent mobile J2 on Day 2 in egg immersion Assays 1 and 2, and Day 4 with the five compounds in the J2 immersion assay, data were log10 (x+1)-transformed before analysis. Data presented are nontransformed means.

[3] = system: Cryptococcus neoformans ATCC 90113; assay: Antimicrobial microplate assay (modified CLSI); assay type: cell-based; settings: Cryptococcus neoformans, ATCC90113; Cr. neoformans
Protocol: (§2) All organisms were obtained from the American Type Culture Collection (ATCC; Manassas, Va., USA) and included the fungi Cryptococcus neoformans ATCC 90113 and the bacteria Staphylococcus aureus ATCC 29213, methicillin-resistant S. aureus ATCC 33591 (MRSA), and Mycobacterium intracellulare ATCC 23068. All organisms were tested using modified versions of the CLSI (formerly NCCLS) methods. For all organisms excluding My. intracellulare, optical density was used to monitor growth. Medium supplemented with 5% AlamarBlue® (BioSource International, Camarillo, Calif., USA) was utilized for growth detection of My. intracellulare. Samples (dissolved in DMSO) were serially diluted in 20% DMSO/saline and transferred (10 μl) in duplicate to 96-well flat-bottom microplates. Inocula were prepared by correcting the OD630 of microbe suspensions in Sabouraud Dextrose for Cr. neoformans, cation-adjusted Mueller-Hinton (Difco) at pH 7.3 for Staphylococcus spp., and 5% AlamarBlue® (BioSource International) in Middlebrook 7H9 broth with OADC enrichment, pH=7.0 for My. intracellulare, to afford an assay volume of 200 μl and final target inocula of: Cr. neoformans.: b 1.5×10^3, My. intracellulare: 2.0×10^6, and Staphylococcus spp.,: 5.0×10^5 CFU/ml. Final sample test concentrations were 1/100th the DMSO stock concentration. Drug controls (Ciprofloxacin (ICN Biomedicals, Ohio, USA) for bacteria and Amphotericin B (ICN Biomedicals) for fungi) were included in each assay. All organisms were read at either 530 nm using the Biotek Powerwave XS plate reader (Bio-Tek Instruments, VT) or 544ex1590em (My. intracellulare) using the Polarstar Galaxy Plate Reader (BMG LabTechnologies, Germany) before and after incubation: Staphylococcus spp. at 35° C. for 16-20 h, Cr. neoformans at 35° C. for 70-74 h, and My. intracellulare at 37° C. and 10% CO2 for 70-74 h. IC50 Values (concentrations that afford 50% inhibition relative to controls) werecalculated using XLfit 4.2 software (IDBS, Alameda, Calif.) using fit model 201.

[4] = system: Staphylococcus aureus ATCC 29213; assay: Antimicrobial microplate assay (modified CLSI); assay type: cell-based; settings: ATCC29213, S. aureus
Protocol: as §2, with “Drug controls (Ciprofloxacin (ICN Biomedicals, Ohio, USA) for bacteria and Amphotericin B (ICN Biomedicals) for fungi) were included in each assay.” left out

[5] = system: methicillin-resistant S. aureus ATCC 33591 (MRSA); assay: Antimicrobial microplate assay (modified CLSI); assay type: cell-based; settings: Staphylococcus aureus
Protocol: as §2, with “Drug controls (Ciprofloxacin (ICN Biomedicals, Ohio, USA) for bacteria and Amphotericin B (ICN Biomedicals) for fungi) were included in each assay.” left out

[6] = system: Mycobacterium intracellulare ATCC 23068; assay: Antimicrobial microplate assay (modified CLSI, AlamarBlue); assay type: cell-based; settings: ATCC23068, My. intracellulare
Protocol: as §2, with “Drug controls (Ciprofloxacin (ICN Biomedicals, Ohio, USA) for bacteria and Amphotericin B (ICN Biomedicals) for fungi) were included in each assay.” left out

[7] = system: adults of ORL and PR strains of Ae. aegypti; assay: Adult mosquito assay, ORL and PR strains; assay type: in vivo; settings: for Percent Mortality: adults, 6.25%, 24 h
Protocol: (§3) Further tests were performed on compounds 11 and 12 to determine their effect on larvae and adult mosquitoes. The compounds were tested in the standard bioassays using the Orlando (ORL), pesticide-susceptible strain and the Puerto Rico (PR), pyrethroid-resistant strain of Ae. aegypti. The ORL strain has been in continuous colony since 1952 with no pesticide exposure while the resistant PR strain was colonized from egg papers collected near San Juan, PR in June, 2012. The PR strain is available as a resistant reference strain through BEIResources/CDC. Mortality was determined in the larval assays at four different concentrations (1, 0.5, 0.25, and 0.1 μg/μl) and three concentrations for adults (6.25%, 3.125%, and 1.56%). Mortality was recorded 24 h post-application, and in all assays, a negative solvent and a positive control using permethrin were utilized; tests were done in triplicate. Assays were conducted according to published procedures as described in Wanner, J. et al. (Curr. Bioact. Compd. 2015, 11, 13).

[8] = system: Ae. aegypti larvae; assay: Larvicidal bioassay against 1-day-old Ae. aegypti larvae (screening and dose-response); assay type: in vivo, Aedes aegypti
Protocol: Analogs were screened for activity against Ae. aegypti larvae following a bioassay system described in Ali, A., et al. (J. Med. Entomol. 2014, 51, 824). Ae. aegypti larvae used in these studies were from a laboratory colony maintained at the Mosquito and Fly Research Unit at the Center for Medical, Agricultural and Veterinary Entomology, USDA-ARS, Gainesville, Fla. For larval bioassays, the eggs were hatched and the larvae were maintained at a temperature of 27±2° C. and 60±10% RH with a photoperiod regimen of 12:12 hour (Light:Dark). Five 1-day-old Ae. aegypti larvae were added into a droplet of H2O to each well of 24-well plates (BD Labware, Franklin Lakes, N.J., USA) by use of a disposable 22.5-cm Pasteur pipette. A quantity of 50 μl of larval diet (2% slurry of 3:2 beef liver powder (Now Foods, Bloomingdale, Ill., USA) and Brewer's yeast (Lewis Laboratories Ltd., Westport, Conn., USA) was added to each well using a Finnpipette stepper (Thermo Fisher, Vantaa, Finland). All chemicals tested were diluted in DMSO. A quantity of 11 μl of the test chemical was added to the labeled wells, while 11 μl of DMSO was added to control treatments. After the treatment application, the plates were swirled in clockwise and counterclockwise motions and front and back and side to side five times to ensure even mixing of the chemicals. Larval mortality was recorded 24 hours post-treatment. […] Three dosages, 100, 50, and 25 ppm, were used in the screening bioassay to determine the larvicidal activity and each treatment was replicated twice. […] Each treatment was replicated ten times. LC50 Values for larvicidal data were calculated using SAS, Proc Probit. Control mortality was corrected using the Abbott's formula.

[9] = system: larvae of ORL and PR strains of Ae. aegypti; assay type: in vivo; settings: for Percent Mortality: larvae, 24 h
Protocol: as §3

[10] = 1-day-old larvae, mortality 24 hours post-treatment

## COc1ccc(/C=C\c2cc(OC)c(C)c(OC)c2)cc1OC [Compound 7k, (Z)-1,3-dimethoxy-5-(3,4-dimethoxystyryl)-2-methylbenzene]
[1]
  effect on mobility of J2 previously hatched in water and immersed directly (in words): had an effect on J2 mobility
[2]; high rate (166.7 μg/ml)
  Percent mobile J2, assay 2: 72.2%
[2]; low rate (83.3 μg/ml)
  Percent mobile J2, assay 2: 92.5%
[2]; in vivo
  effect on mobility of J2 hatched from eggs immersed in solutions (in words): some suppressive effect on mobility

## COc1cc(/C=C/c2ccc(O)c(CC=C(C)C)c2)cc(OC)c1 [Compound 11, (E)-4-(3,5-dimethoxystyryl)-2-(3-methylbut-2-en-1-yl)phenol]
[3]
  IC50: 13.6 µM
  MIC: 30.8 µM (≈ 10 µg/mL)
[4]
  IC50: 13.1 µM
  MIC: 30.8 µM (≈ 10 µg/mL)
[5]
  IC50: 9.1 µM
  MIC: 15.4 µM (≈ 5 µg/mL)
[6]
  IC50: 47.2 µM
  MIC: 61.7 µM (≈ 20 µg/mL)
[7]; both strains
  effectiveness against adult mosquitoes (in words): somewhat effective
[8]; 1-day-old larvae, 24 hours
  LC50 (LD50 converted to μM): 45.31 µM
[8]; [10]
  LD50 (95% CI): 14.7^b ppm
  LD90 (95% CI): 34.7 ppm
[8]; screening at 100, 50 and 25 ppm
  larvicidal activity (in words): high larvicidal activity
[9]; ORL and PR strains
  effectiveness against larvae (in words): highly effective
[9]; ORL strain, 0.1 μg/μl
  Percent Mortality: 100%
[9]; ORL strain, 0.25 μg/μl
  Percent Mortality: 100%
[9]; ORL strain, 0.5 μg/μl
  Percent Mortality: 100%
[9]; ORL strain, 1.0 μg/μl
  Percent Mortality: 100%
[9]; PR strain, 0.1 μg/μl
  Percent Mortality: 93.3 ± 11.5%
[9]; PR strain, 0.25 μg/μl
  Percent Mortality: 100%
[9]; PR strain, 0.5 μg/μl
  Percent Mortality: 100%
[9]; PR strain, 1.0 μg/μl
  Percent Mortality: 100%

## CC1(C)C(C=C(Cl)Cl)C1C(=O)OCc1cccc(Oc2ccccc2)c1 (stereo not drawn) [Permethrin, permethrin, reference compound]
[7]; ORL strain
  Percent Mortality: 100%
[7]; PR strain
  Percent Mortality: 85 ± 10%
[9]; ORL strain, 0.1 μg/μl
  Percent Mortality: 100%
[9]; PR strain, 0.1 μg/μl
  Percent Mortality: 93.3 ± 11.5%
